Measured values reported in PubChem BioAssay AID1963844 (Molecular Pharmacology Branch, DTP, NCI, 2024).

System: 422866-222-R5-J1-PDC complex spheroid viability
Experiment: Anticancer human tumor 422866-222-R5-J1-PDC patient-derived pancreatic adenocarcinoma cell line growth inhibition [POLQ]
Conditions: for IC50: curve of first compound; for viability, T/C: stronger effect = lower value
Outline: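 PDC + HUVEC + MSC complex spheroids; POLQ inhibitors ± partner drugs; top conc. at/near clinical Cmax, else 10 microM (SN-38 1 microM), half-log dilutions; 37 degrees C, 5% CO2.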

[1] = second compound 0.0316 µM, first compound 0.0316 µM
[2] = second compound 0.0316 µM, first compound 0.1 µM
[3] = second compound 0.1 µM, first compound 0.0316 µM
[4] = second compound 0.1 µM, first compound 0.1 µM
[5] = second compound 0.316 µM, first compound 0.0316 µM
[6] = second compound 0.316 µM, first compound 0.1 µM
[7] = second compound 1 µM, first compound 0.0316 µM
[8] = second compound 1 µM, first compound 0.1 µM
[9] = second compound 3.16 µM, first compound 0.0316 µM
[10] = second compound 3.16 µM, first compound 0.1 µM
[11] = second compound 10 µM, first compound 0.0316 µM
[12] = second compound 10 µM, first compound 0.1 µM
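Further: spheroids exposed to compounds for one week before readout.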
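Wherever viability, T/C is given: percent of DMSO vehicle wells luminescence so 100% = untreated viability.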

Q: What does the source list for `CNCc1ccc(-c2[nH]c3cc(F)cc4c3c2CCNC4=O)cc1` + Cc1cccc(N(C)C(=O)C2C(O)CCN2c2nc(C)cc(C(F)(F)F)c2C#N)c1?
A: IC50 (second compound 0.0316 µM): > 10 µM; IC50 (second compound 0.1 µM): > 10 µM; IC50 (second compound 0.316 µM): > 10 µM; IC50 (second compound 1 µM): > 10 µM; IC50 (second compound 3.16 µM): > 10 µM; IC50 (second compound 10 µM): > 10 µM; viability, T/C [1]: 105%; viability, T/C [2]: 88.9%; viability, T/C (second compound 0.0316 µM, first compound 0.316 µM): 91.2%; viability, T/C (second compound 0.0316 µM, first compound 1 µM): 99.3%; viability, T/C (second compound 0.0316 µM, first compound 3.16 µM): 89.6%; viability, T/C (second compound 0.0316 µM, first compound 10 µM): 85.5%; viability, T/C [3]: 94.8%; viability, T/C [4]: 86.7%; viability, T/C (second compound 0.1 µM, first compound 0.316 µM): 85.6%; viability, T/C (second compound 0.1 µM, first compound 1 µM): 86%; viability, T/C (second compound 0.1 µM, first compound 3.16 µM): 101%; viability, T/C (second compound 0.1 µM, first compound 10 µM): 108%; viability, T/C [5]: 88.3%; viability, T/C [6]: 97.1%; viability, T/C (second compound 0.316 µM, first compound 0.316 µM): 88%; viability, T/C (second compound 0.316 µM, first compound 1 µM): 85%; viability, T/C (second compound 0.316 µM, first compound 3.16 µM): 80.9%; viability, T/C (second compound 0.316 µM, first compound 10 µM): 89.6%; viability, T/C [7]: 103%; viability, T/C [8]: 85.6%; viability, T/C (second compound 1 µM, first compound 0.316 µM): 93.3%; viability, T/C (second compound 1 µM, first compound 1 µM): 85.3%; viability, T/C (second compound 1 µM, first compound 3.16 µM): 86.7%; viability, T/C (second compound 1 µM, first compound 10 µM): 89.7%; viability, T/C [9]: 96.4%; viability, T/C [10]: 83.9%; viability, T/C (second compound 3.16 µM, first compound 0.316 µM): 87.6%; viability, T/C (second compound 3.16 µM, first compound 1 µM): 80.8%; viability, T/C (second compound 3.16 µM, first compound 3.16 µM): 79.8%; viability, T/C (second compound 3.16 µM, first compound 10 µM): 87.3%; viability, T/C [11]: 102%; viability, T/C [12]: 107%; viability, T/C (second compound 10 µM, first compound 0.316 µM): 88%; viability, T/C (second compound 10 µM, first compound 1 µM): 76.6%; viability, T/C (second compound 10 µM, first compound 3.16 µM): 85.8%; viability, T/C (second compound 10 µM, first compound 10 µM): 67.1%

Q: Which results are given for `Cn1ncnc1[C@H]1c2n[nH]c(=O)c3cc(F)cc(c23)N[C@@H]1c1ccc(F)cc1` + Cc1cccc(N(C)C(=O)C2C(O)CCN2c2nc(C)cc(C(F)(F)F)c2C#N)c1?
A: IC50 (second compound 0.0316 µM): > 0.1 µM; IC50 (second compound 0.1 µM): > 0.1 µM; IC50 (second compound 0.316 µM): > 0.1 µM; IC50 (second compound 1 µM): > 0.1 µM; IC50 (second compound 3.16 µM): > 0.1 µM; IC50 (second compound 10 µM): > 0.1 µM; viability, T/C (second compound 0.0316 µM, first compound 0.000316 µM): 93.3%; viability, T/C (second compound 0.0316 µM, first compound 0.001 µM): 97.3%; viability, T/C (second compound 0.0316 µM, first compound 0.00316 µM): 93.7%; viability, T/C (second compound 0.0316 µM, first compound 0.01 µM): 89%; viability, T/C [1]: 76.5%; viability, T/C [2]: 82.1%; viability, T/C (second compound 0.1 µM, first compound 0.000316 µM): 116%; viability, T/C (second compound 0.1 µM, first compound 0.001 µM): 95.2%; viability, T/C (second compound 0.1 µM, first compound 0.00316 µM): 90%; viability, T/C (second compound 0.1 µM, first compound 0.01 µM): 93.2%; viability, T/C [3]: 81.8%; viability, T/C [4]: 65.9%; viability, T/C (second compound 0.316 µM, first compound 0.000316 µM): 108%; viability, T/C (second compound 0.316 µM, first compound 0.001 µM): 97.3%; viability, T/C (second compound 0.316 µM, first compound 0.00316 µM): 90.6%; viability, T/C (second compound 0.316 µM, first compound 0.01 µM): 88.4%; viability, T/C [5]: 81.4%; viability, T/C [6]: 83.1%; viability, T/C (second compound 1 µM, first compound 0.000316 µM): 93.9%; viability, T/C (second compound 1 µM, first compound 0.001 µM): 90.2%; viability, T/C (second compound 1 µM, first compound 0.00316 µM): 93.6%; viability, T/C (second compound 1 µM, first compound 0.01 µM): 89%; viability, T/C [7]: 79.3%; viability, T/C [8]: 77.2%; viability, T/C (second compound 3.16 µM, first compound 0.000316 µM): 95.6%; viability, T/C (second compound 3.16 µM, first compound 0.001 µM): 101%; viability, T/C (second compound 3.16 µM, first compound 0.00316 µM): 94.2%; viability, T/C (second compound 3.16 µM, first compound 0.01 µM): 77.3%; viability, T/C [9]: 87.4%; viability, T/C [10]: 91.9%; viability, T/C (second compound 10 µM, first compound 0.000316 µM): 95.1%; viability, T/C (second compound 10 µM, first compound 0.001 µM): 97.7%; viability, T/C (second compound 10 µM, first compound 0.00316 µM): 102%; viability, T/C (second compound 10 µM, first compound 0.01 µM): 72.5%; viability, T/C [11]: 82.9%; viability, T/C [12]: 83.2%
